This is an account of results in patent US12428623B2, “Generation of midbrain-specific organoids from human pluripotent stem cells” (AGENCY FOR SCIENCE, TECHNOLOGY AND RESEARCH, priority 2016, dated 2025).

Format in all cases: cell-based
Test [1] relates to human cerebral organoids (hCOs). The test is described as follows: Neuromelanin-like granule formation in human cerebral organoids. Conditions: 50 μM for 10 days; human cerebral organoids (FIG. 7G).
Experimental: Human midbrain-like organoids were fixed in 4% paraformaldehyde (PFA) overnight, washed in PBS, embedded in paraffin block, and subsequently sectioned at 4 μm thickness. Next, hMLOsections were deparaffinized, hydrated with distilled water, and stained by Fontana-Masson staining kit (Abcam) according to manufacturer's protocol ([…] et al., 2011). Briefly, the sections were placed in ammoniacal silver solution and incubated in a 58 to 60° C. water bath for 30 to 60 minutes until the tissue sections had become yellowish/brown in colour. The tissue sections were washed with distilled water and incubated in gold chloride solution (0.2%) for 30 seconds. Next, the sections were incubated in gold chloride solution (0.2%) for 30 seconds and subsequently incubated with sodium thiosulfate solution (5%) for 2 minutes. Finally, the sections were incubated in nuclear fast red solution for 5 minutes for staining and mounting. Images were taken on an LSM710 confocal microscope or an Observer Z. 1 inverted microscope (Zeiss).
The subject of test [2] is human midbrain-like organoids (hMLOs). The test is described as follows: Neuromelanin-like granule formation in human midbrain-like organoids (bright field, Fontana-Masson staining). Conditions: for formation of neuromelanin-like granules: 50 μM treatment, bright field images and Fontana-Masson stained sections (FIG. 3G).
Experimental: For generation of human midbrain-like organoids, human embryonic stem cell lines were used at less than 40 passages. The human embryonic stem cells were dissociated from intact colonies to single cells with TrypLE Express (Life Technologies), and 10,000 cells were plated in each well of low-cell-adhesion 96-well culture plate with V-bottomed conical wells (Sumitomo Bakelite) to form uniform EBs in neuronal induction medium containing DMEM/F12:Neurobasal (1:1), 1:100 N2 supplement (Invitrogen), 1:50 B27 without vitamin A (Invitrogen), 1% GlutaMAX (Invitrogen), 1% minimum essential media-nonessential amino acid (Invitrogen), and 0.1% β-mercaptoethanol (Invitrogen) supplemented with 1 μg/ml Heparin (Sigma-Aldrich), 10 μM SB431542 (Stemgent), 200 ng/ml Noggin (Prospec), 0.8 μM CHIR99021 (Reagents Direct), and 10 μM ROCK inhibitor Y27632 (Calbiochem). ROCK inhibitor was added for the first 48 hours and neuronal induction medium was changed on day 2. On day 4, human midbrain-like organoids were cultured with addition of 100 ng/ml SHH-C25II (R&D Systems) and 100 ng/ml FGF8 (R&D Systems) for midbrain patterning. After 3 days, the human midbrain-like organoids started to extrude neuroectodermal buds, media were completely removed and immediately 30 μl of growth factor reduced matrigel was added in each well by pipetting using pre-chilled 200 μl pipette tip. The matrigel embedded midbrain-like organoid was placed into 37° C. incubator for 30 minutes to allow the matrigel to solidify, and was grown in tissue growth induction medium containing Neurobasal, 1:100 N2 supplement (Invitrogen), 1:50 B27 without vitamin A (Invitrogen), 1% GlutaMAX (Invitrogen), 1% minimum essential media-nonessential amino acid (Invitrogen), and 0.1% β-mercaptoethanol (Invitrogen) supplemented with 2.5 μg/ml Insulin (Sigma-Aldrich), 200 ng/ml Laminin (Sigma-Aldrich), 100 ng/ml SHH-C25II (R&D Systems), and 100 ng/ml FGF8 (R&D Systems) for 24 h. […]
The subject of test [3] is neuron inside a human midbrain-like organoid. Briefly: Whole cell patch clamp recording of spontaneous postsynaptic currents in hMLO neurons. To be noted: for spontaneous excitatory postsynaptic currents (sEPSCs): neuron inside hMLO at day 80, CNQX and AP5 applied together (FIG. 4F, recording 2). How it is done: Whole cell patch clamp recording techniques were used to measure the intrinsic properties of neurons within human midbrain-like organoids. Each human midbrain-like organoid was placed in a chamber and submerged beneath continuously perfused artificial CSF (aCSF) saturated with 95% O2 and 5% CO2 at 30 to 32° C. Patch pipettes (2 to 4 MΩ) were filled with an intracellular solution containing (in mM): Potassium methanesulfonate 135, KCl 10, HEPES 10, EGTA 1 Na2ATP 2; 290 mOsm; pH was adjusted to between 7.2 to 7.4 with KOH. Whole cell recordings were performed using IR-DIC visualization techniques with an Olympus BX51WI upright microscope, using a ×60 water immersion lens. Signals were recorded using an MultiClamp 700B amplifier, filtered at 3 kHz using a Bessel filter, and digitized at 10 kHz with a Digidata 1322A analog-to-digital (A/D) board (Molecular Devices, Sunnyvale, CA). To measure Na^+ currents and K^+ currents, voltage steps (500 msec duration) were applied from a holding potential of −70 mV to a range of test potentials between −50 and +90 mV (10 mV increments). For excitability test, a series of current pulses (500 msec) of increasing amplitude (5 pA steps) were injected to make the current-firing frequency relationship. Spontaneous excitatory postsynaptic currents (sEPSCs) were collected at a holding potential of −70 mV. Evoked excitatory postsynaptic currents (eEPSCs) was induced by tungsten wire electrodes placed about 300 μm away from the recording neuron within the hMLO.
Background: The patch-clamp technique gives a direct electrical read-out from membranes.

Regarding `N[C@@H](Cc1ccc(O)c(O)c1)C(=O)O` [L-DOPA, L-3,4-dihydroxyphenylalanine], the “neuromelanin (NM)-like granules or coloured deposits” value in test [1] was “did not show any neuromelanin (NM)-like granules”. In test [2], the “formation of neuromelanin-like granules” value was “accelerated”. Besides, the “distribution of neuromelanin-like granules” value in test [2] (L-DOPA 50 μM, hMLO at day 35, untreated hMLO at the same day showed none) is reported as “robust distribution of neuromelanin-like granules was observed”. For the molecule `NCCc1ccc(O)c(O)c1` [dopamine, 3,4-dihydroxyphenethylamine], in test [2], the “formation of neuromelanin-like granules” value was “accelerated”. With `NC(CCCP(=O)(O)O)C(=O)O` (stereo not shown) [AP5], the “spontaneous excitatory postsynaptic currents (sEPSCs)” value in test [3] is reported as “blocked”. Regarding picrotoxin, the “spontaneous inhibitory postsynaptic currents (sIPSCs)” value in test [3] (neuron inside hMLO at day 80 (FIG. 4F, recording 3)) was “blocked”.

On to `N#Cc1cc2[nH]c(=O)c(=O)[nH]c2cc1[N+](=O)[O-]` [CNQX], for which, in test [3], the “spontaneous excitatory postsynaptic currents (sEPSCs)” value is reported as “blocked”.
